We go through 5 molecules from patent US7390836B2, “Small molecules used to increase cell death” (priority 1999, dated 2008).

Molecules are shown by their SMILES. Read-outs that look alike come from different tables or passages of the source. Peptide text beside a SMILES is read from it. * marks the point of attachment. Cbz = O=C(OCc1ccccc1)*; CH2F = FC*

Data set [1] has as its system Bak BH3 peptide / Bcl-xL (Bcl-xL/GST, Bcl-xL-His6) interaction. As to the kind of experiment: Fluorescence polarization assay, labeled Bak BH3 peptide binding to Bcl-xL fusion protein. To be noted: for order of affinities of BH3Is: overall rank order from FP, NMR, pulldown and SELDI results; for order of decreasing affinity, fluorescence polarization assays: rank order. The text has this: We have used a fluorescence polarization assay to screen a library of 16,000 chemical compounds (ChemBridge, San Diego, Calif.) to identify small molecules that inhibit the interaction between a peptide corresponding to the BH3 domain of a pro-apoptotic protein and a recombinant Bcl-xL/GST fusion protein. In this assay, an […] peptide corresponding to the BH3 domain of Bak was used. The Bak peptide was labeled with a fluorescent tag, such as OREGON GREEN. Upon binding of the tagged peptide to the Bcl-xL/GST fusion protein, the polarization of light emitted by the tagged peptide is altered. […] Conversely, in a sample in which a compound does inhibit the interaction between the Bak peptide and the Bcl-xL/GST fusion protein the polarization of light emitted by the peptide will not be altered.
A nineteen amino acid Bak peptide, corresponding to the BH3 domain of Bak, with the sequence […] (SEQ ID NO: 2) was labeled with the fluorophore OREGON GREEN according to the manufacturer's instructions (Molecular Probes, Eugene, Oreg.). In addition, a recombinant Bcl-xL/GST fusion protein was generated using conventional techniques known to those skilled in the fields of biochemistry and molecular biology. The interaction between the Bak peptide and the Bcl-xL/GST fusion protein was confirmed.
A screen of approximately 16,000 compounds from the ChemBridge chemical compound library was conducted to identify compounds that disrupt the interaction between the Bak peptide and the Bcl-xL/GST fusion protein. The ability of a compound to disrupt the interaction between the two polypeptides was assessed using a fluorescence polarization assay. The Bak peptide and Bcl-xL/GST fusion protein (15 nM each; dissolved in PBS) were first combined, and then the compound was added. Alternatively, the Bak peptide, Bcl-xL/GST fusion protein, and test compound (5 mg/ml; dissolved in 0.1-0.5 gl of DMSO) may be combined in any order. Normally the unbound Bak polypeptide results in polarization of approximately 40 mP units. Upon binding of the Bcl-xL/GST fusion protein, polarization increased to approximately 100-120 mP units.
In a preferred method, the fluorescence assay was carried out as follows. Bak BH3 peptide (Research Genetics) was labeled using NHS-OREGON GREEN (Molecular Probes) and purified by HPLC. For the initial screening assays, 33 nM of labeled BH3 peptide, 2 μM of GST-Bcl-xL protein, 0.1% bovine gamma globulin (BGG, Sigma) and 1 mM DTT mixed with PBS, pH 7.2 (Gibco) were added into 384 well black plates (Lab Systems) using MULTIDROP (Lab Systems). Small molecules (5 mg/ml in DMSO, ChemBridge) were transferred using plastic 384-pin arrays (Genetix). The plates were incubated for 1-2 hr at 25° C., and the fluorescence polarization assay values were determined using an Analyst plate reader (LJL Biosystems). Reactions containing 16.65 nM of labeled BH3 peptide and 4.2 μM of Bcl-xL-His6 fusion protein, which was previously utilized to characterize BH3/Bcl-xL binding (Sattler et al., Science 275:983-6, 1997) were used for the further fluorescence polarization analyses. Kd and Ki determination was performed as previously described using […] PRISM software package (GraphPad) (Dandliker et al., Methods Enzymol. 74:3-28,1981).
In a further screen, various concentrations of each of the above-identified compounds were evaluated for their potency. A serial dilution of each chemical compound was performed and the fluorescence polarization assay was repeated, as per the primary screen. As a result of the secondary screening, three compounds, chemical compound ID numbers 275805 (BH3I-1; FIG. 1), 282986 (BH3I-1′; FIG. 2), and 175362 (BH3I-2; FIG. 3), collectively termed “BH3Is,” were identified to disrupt the interaction between Bak and the BCL-xL/GST fusion protein. […] Additional homologues of the BH3I-1s (BH3I-1″ and BH3I-1′″) and BH3I-2 (BH3-2″ and BH3I-2″) were also analyzed in the study (FIG. 4). […]
For orientation: In fluorescence polarisation assays a small probe gives low polarisation when free and higher when bound to something large.

Another data set relates to Jurkat cells. As to the kind of experiment: Cytotoxicity by MTS assay and propidium iodide uptake. The format is cell-based. On the procedure: Since BH3Is induce apoptosis, their mode of action, for example, through disruption of BH3 domain interactions, was investigated next. If apoptosis induced by a BH3I is BH3-dependent, then cytotoxicity should correlate with the compound's ability to disrupt BH3 domain interactions in vitro. To examine this possibility, Jurkat cells were treated with the BH3 Is and the occurrence of cell death was assayed by the MTS assay and propidium iodide (PI) uptake (FIG. 7A). The cytotoxicity of BH3-Is followed the order of BH3I-2′>BH3I-2>BH3I-2″>BH3I-1>BH3I-1′>BH3I-1″>BH3I-1′″ which paralleled the order of their Ki values determined using in vitro Bcl-xL binding assays (FIGS. 7B and 7C). Similar data were obtained using a trypan blue exclusion assay.

The next data set concerns the target T1, Bcl-xL (Homo sapiens, UniProt Q07817, DEL45-84).
T1 construct: His6 (C); made in house
Kind of data set: NMR titration of Bcl-xL. The data set is classed as binding. The note with it: rank order. The procedure:
To verify this conclusion, NMR titrations of Bcl-xL with BH3I-1s were performed and their Ki values were determined (FIG. 4). […] The BH3I-1s Ki values obtained by the NMR approach agree with the results of both pulldown and SELDI analyses. Therefore, the order of affinities of BH3Is is: BH312′>BH3I-2>BH3I-2″>BH3I-1>BH3I-1′>BH3I-1″>BH3I-1′″.
NMR titration was used to examine whether BH3Iinteracts with the binding pocket of Bcl-xL in a manner similar to Bak BH3 peptide (Hajduk et al., Science 278:497-499, 1997).
Next, changes in Bcl-xL structure upon addition of increasing amounts of BH3Is were determined. Each of the BH3Is induced significant changes in the Bcl-xL structure. The compounds targeted the hydrophobic cleft formed by the BH1, BH2, and BH3 domains on the surface of the Bcl-xL protein, and primarily bound to the area formed by BH1 and BH2 domains.

The test system of the next data set is HeLa cells, Jurkat cells. Kind of data set: Caspase dependence of BH3I-induced cell death (zVAD-fmk). The data set is classed as cell-based. To be noted: Hoechst dye. On the procedure:
FIG. 10A is a graph showing the comparison of BH3Is and Bax induced cell death. HeLa cells were transfected with YFP-Bax and pEYFP-C 1 for 48 hr in the absence (open bars) or presence (closed bars) of 100 μM zVAD-fmk. YFP transfected cells were also treated with BH3I-1 (100 μM) or BH3I-2 (50 μM) for 48 hours. Cell viability was determined by propidium iodide (PI) staining and microscopic examination of PI/YFP positive cells. Numbers represent the percentage of PI positive cells in the YFP positive population. The values of standard deviation are also shown.
FIG. 10B is a graph showing the attenuation of BH3Is' cytotoxicities by the pan-caspase inhibitor zVAD-fmk. Jurkat cells were treated with BH3I-1 or BH3I-2 in the presence (open bars) or absence (closed bars) of 100 μM zVAD-fmk (Alexis) for 48 hr. Cell death was determined using an MTS assay. Numbers represent the percentages of cell death, normalized relative to a DMSO treated control, which was set at 100% viability. Standard deviation values are also shown.
FIG. 10C is a set of images of cells showing that nuclear fragmentation, but not cytochrome c release, induced by BH3Is, requires caspases. […]
FIG. 10D-1-10D-6 are a series of graphs showing DNA fragmentation analysis of Jurkat cells treated with BH3Is and zVAD-fmk. […] Samples were analyzed by FACS, and the percentage of subG1 DNA is shown for each sample. […]

A further data set concerns HeLa cells. As to the kind of experiment: Cell death by ATP levels after zVAD-fmk pretreatment. The format is cell-based. The note with it: zVAD-fmk 100 μM pretreatment, 48 or 72 hours. On the procedure:
The conditions under which cell death occurs in the presence of BH3Is were further evaluated. HeLa cells were pretreated with zVAD-fmk (100 μM) for 1 hour. The purpose of such a treatment was to inhibit the intracellular pathways mediating cell death by apoptosis. Each of the chemical compounds BH3I-1, BH3I-1′, or BH3I-2 was then added to the media of the cells of three separate samples. After 48 or 72 hours of exposure of the cells to zVAD-fmk and the chemical compound, the level of cell death was measured for each sample, by measuring cellular ATP levels.

The test system of data set [2] is HeLa cells that stably overexpress human BCL-XL. As to the kind of experiment: Cell death by ATP levels in Bcl-xL overexpressing cells after zVAD-fmk pretreatment. The format is cell-based. The note with it: zVAD-fmk 100 μM pretreatment, 48 or 72 hours. The procedure:
In another study, HeLa cells that stably overexpress human BCL-XL, and are therefore more resistant to cell death, were pretreated with zVAD-fmk (100 μM) for 1 hour, as described above. Each of the chemical compounds BH3I-1, BH3I-1′, and BH3I-2 from the ChemBridge library was then added to the media of the cells of three separate samples. After 48 or 72 hours of exposure of the cells to zVAD-fmk and the chemical compound, the level of cell death was measured for each sample, by measuring cellular ATP levels.

Setting [3] is: MTS assay and PI uptake, rank order.

T1 sequence (Q07817 with tags, fused parts or gaps DEL45-84 limits assumed): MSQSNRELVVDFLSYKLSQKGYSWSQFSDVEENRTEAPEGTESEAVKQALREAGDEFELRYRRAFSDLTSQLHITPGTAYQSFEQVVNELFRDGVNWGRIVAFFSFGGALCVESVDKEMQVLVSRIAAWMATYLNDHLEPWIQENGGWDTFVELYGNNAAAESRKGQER

For the molecule `CC(C)C(C(=O)O)N1C(=O)/C(=C/c2ccc(N(C)C)cc2)SC1=S` (stereo not shown) [BH3I-1′″], in data set [1], the “order of affinities of BH3Is” value is on record as “BH312′>BH3I-2>BH3I-2″>BH3I-1>BH3I-1′>BH3I-1″>BH3I-1′″”. Besides, in the data set with Jurkat cells, the order of cytotoxicity entry is listed as “BH3I-2′>BH3I-2>BH3I-2″>BH3I-1>BH3I-1′>BH3I-1″>BH3I-1′″”. The “relative order of affinities, NMR titrations” value at Bcl-xL was “BH3I-1>BH3I-1′>BH3I-1″>BH3I-1′″”.
Take `O=C(Nc1cc(S(=O)(=O)c2ccc(Cl)cc2)ccc1Cl)c1cc(I)cc(I)c1O` [BH3I-2″]: in data set [1], the “order of affinities of BH3Is” value is on record as “BH312′>BH3I-2>BH3I-2″>BH3I-1>BH3I-1′>BH3I-1″>BH3I-1′″” and the “order of decreasing affinity, fluorescence polarization assays” value (shortened to “order of decreasing affinity”) is recorded as “BH3I-1>BH3I-1′>BH3I-2′>BH3I-2>BH3I-2″>BH3I-1″”. In addition, in the data set on Jurkat cells (setting [3]), the order of cytotoxicity result is “BH3I-2′>BH3I-2>BH3I-2″>BH3I-1>BH3I-1′>BH3I-1″>BH3I-1′″”.
With `COC(=O)C[C@H](NC(=O)[C@H](C)NC(=O)[C@@H](NC(=O)OCc1ccccc1)C(C)C)C(=O)CF` [zVAD-fmk] (Cbz-Val-Ala-Asp(OMe)-CH2F), in the data set on HeLa cells, Jurkat cells, the “protection from BH3I-induced nuclear fragmentation” value was “completely protected cells from BH3I-induced nuclear fragmentation”.
With `O=C(Nc1cc(S(=O)(=O)c2ccc(Cl)cc2)ccc1Cl)c1cc(Cl)cc(I)c1O` [BH3I-2′], in data set [1], the “order of affinities of BH3Is” value is on record as “BH312′>BH3I-2>BH3I-2″>BH3I-1>BH3I-1′>BH3I-1″>BH3I-1′″” and the “order of decreasing affinity” value is “BH3I-1>BH3I-1′>BH3I-2′>BH3I-2>BH3I-2″>BH3I-1″”. The order of cytotoxicity entry in the data set with Jurkat cells (setting [3]) is “BH3I-2′>BH3I-2>BH3I-2″>BH3I-1>BH3I-1′>BH3I-1″>BH3I-1′″”.
Take `CC(C)C(C(=O)O)N1C(=O)/C(=C/c2ccc(Cl)cc2)SC1=S` (stereo not shown) [BH3I-1′]: in data set [1], the “order of affinities of BH3Is” value is given as “BH312′>BH3I-2>BH3I-2″>BH3I-1>BH3I-1′>BH3I-1″>BH3I-1′″” and the “order of decreasing affinity” value was “BH3I-1>BH3I-1′>BH3I-2′>BH3I-2>BH3I-2″>BH3I-1″”. For the same molecule, in the data set with Jurkat cells (setting [3]), the order of cytotoxicity result is given as “BH3I-2′>BH3I-2>BH3I-2″>BH3I-1>BH3I-1′>BH3I-1″>BH3I-1′″”. In addition, the “relative order of affinities, NMR titrations” value at Bcl-xL is listed as “BH3I-1>BH3I-1′>BH3I-1″>BH3I-1′″”. Moreover, the “cellular ATP levels” value in the data set with HeLa cells is “cellular ATP levels decreased”. Moreover, the “cellular ATP levels” value in data set [2] is listed as “cellular ATP levels decreased”.
